Where a name gives a salt, the structure may show the parent alone.

By Ki is commonly meant a dissociation constant, usually derived from enzyme kinetics or from competition with a known ligand. Higher therefore signals weaker binding. In general, half-life refers to the time needed for the level to fall by half in the phase considered. A word on the IC50: it is the point on the concentration scale where inhibition reaches its midpoint. A higher IC50 goes with weaker potency.

Data set [1] concerns the target T1, alkaline phosphatase (ALPL) (Homo sapiens, UniProt P05186).
T1 sequence (P05186 18-524): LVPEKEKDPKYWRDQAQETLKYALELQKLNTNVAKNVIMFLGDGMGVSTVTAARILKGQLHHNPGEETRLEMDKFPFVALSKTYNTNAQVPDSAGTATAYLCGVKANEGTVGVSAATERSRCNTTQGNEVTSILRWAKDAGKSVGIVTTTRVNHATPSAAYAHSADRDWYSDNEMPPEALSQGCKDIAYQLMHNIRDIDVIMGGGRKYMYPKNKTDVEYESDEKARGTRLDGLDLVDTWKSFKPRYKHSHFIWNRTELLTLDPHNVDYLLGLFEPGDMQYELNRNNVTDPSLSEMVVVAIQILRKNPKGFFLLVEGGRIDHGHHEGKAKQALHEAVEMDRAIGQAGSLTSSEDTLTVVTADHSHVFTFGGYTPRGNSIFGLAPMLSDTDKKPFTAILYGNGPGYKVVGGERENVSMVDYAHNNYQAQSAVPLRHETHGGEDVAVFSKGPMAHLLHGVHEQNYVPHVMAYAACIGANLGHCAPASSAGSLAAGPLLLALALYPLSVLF
Description: ALPL inhibition assay. The data set is classed as biochemical.

For another data set, the target named is ENPP2 (Homo sapiens, UniProt Q13822). The data set can be described thus: ENPP2 inhibition assay. Type of data set: biochemical.
A short description of data set [2]: parallel artificial membrane permeability assay. The data set is classed as in vitro ADME. The following applies: PAMPA, compared to high and low permeability controls. A general note: In PAMPA a lipid-coated filter parts donor from acceptor wells.
Another data set concerns Caco-2 monolayer. Description: Caco-2 permeability assay. The following applies: Caco-2, apical to basolateral, 2 hours. Type of data set: in vitro ADME. (Caco-2 cells form a polarised layer with tight junctions and transporters.)
For the next data set, the system named is epithelial cells MDCK. The data set can be described thus: MDCK permeability assay. The data set is classed as in vitro ADME.
The subject of another data set is 4T1-luc cells. The data set can be described thus: Extracellular cGAMP measurement in cancer cell lines. The data set is classed as cell-based, mouse.
The next data set concerns 4T1-luc tumors. The data set can be described thus: Established orthotopic 4T1-luc tumor growth with IR and cGAMP. Type of data set: in vivo, mouse.
A short description of data set [3]: Pharmacokinetics of STF-1084. The following applies: in vivo.
Data set [4] relates to primary human PBMCs. The data set can be described thus: PBMC toxicity. The note with it: 16 h.
Data set [5] can be described thus: Liver microsome stability, human. The note with it: liver microsomes. In general terms: Liver microsomes are vesicles of endoplasmic reticulum, rich in cytochrome P450 enzymes.
Data set [6] in a line: Liver microsome stability, mouse. The note with it: liver microsomes.
Data set [7] has as its system cGAMP exporter(s) in 293T cGAS ENPP1−/− cells. The data set can be described thus: Intracellular and extracellular cGAMP in 293T cGAS ENPP1−/− cells. The note with it: 24 hours; STF-1084 10 μM; STF-1623 2 μM; QS1 in ENPP1 null cells.
The target in a further data set is T2, purified mouse ENPP1 (Mus musculus, UniProt P06802).
T2 sequence (P06802 85-906 limits assumed): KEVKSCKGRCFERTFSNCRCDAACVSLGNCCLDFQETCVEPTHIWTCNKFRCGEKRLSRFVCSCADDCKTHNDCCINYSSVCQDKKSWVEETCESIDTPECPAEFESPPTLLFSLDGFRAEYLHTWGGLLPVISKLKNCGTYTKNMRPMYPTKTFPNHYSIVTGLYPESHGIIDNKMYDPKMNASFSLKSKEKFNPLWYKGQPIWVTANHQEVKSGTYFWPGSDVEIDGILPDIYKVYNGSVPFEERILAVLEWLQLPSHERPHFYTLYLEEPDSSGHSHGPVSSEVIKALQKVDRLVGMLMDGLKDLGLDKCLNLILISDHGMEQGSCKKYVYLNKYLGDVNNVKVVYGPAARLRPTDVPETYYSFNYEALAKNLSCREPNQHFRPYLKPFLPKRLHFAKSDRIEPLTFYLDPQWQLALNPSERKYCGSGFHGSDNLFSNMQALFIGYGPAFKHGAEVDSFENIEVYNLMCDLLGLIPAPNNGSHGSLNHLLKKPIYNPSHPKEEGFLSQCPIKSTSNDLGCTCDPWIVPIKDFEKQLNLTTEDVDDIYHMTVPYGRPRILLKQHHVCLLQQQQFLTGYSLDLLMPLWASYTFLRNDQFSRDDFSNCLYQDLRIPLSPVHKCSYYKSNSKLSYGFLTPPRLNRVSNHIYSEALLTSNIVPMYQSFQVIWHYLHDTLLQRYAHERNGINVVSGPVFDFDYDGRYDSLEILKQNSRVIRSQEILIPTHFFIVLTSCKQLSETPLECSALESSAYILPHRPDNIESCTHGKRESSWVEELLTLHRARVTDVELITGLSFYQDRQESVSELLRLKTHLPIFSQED
Description: 32P-cGAMP degradation TLC assay. Type of data set: biochemical.

Data set [8] concerns the target T3, human ENPP1 transfected into 293T cGAS ENPP1−/− cells (Homo sapiens, UniProt P22413).
T3 sequence (P22413 1-925): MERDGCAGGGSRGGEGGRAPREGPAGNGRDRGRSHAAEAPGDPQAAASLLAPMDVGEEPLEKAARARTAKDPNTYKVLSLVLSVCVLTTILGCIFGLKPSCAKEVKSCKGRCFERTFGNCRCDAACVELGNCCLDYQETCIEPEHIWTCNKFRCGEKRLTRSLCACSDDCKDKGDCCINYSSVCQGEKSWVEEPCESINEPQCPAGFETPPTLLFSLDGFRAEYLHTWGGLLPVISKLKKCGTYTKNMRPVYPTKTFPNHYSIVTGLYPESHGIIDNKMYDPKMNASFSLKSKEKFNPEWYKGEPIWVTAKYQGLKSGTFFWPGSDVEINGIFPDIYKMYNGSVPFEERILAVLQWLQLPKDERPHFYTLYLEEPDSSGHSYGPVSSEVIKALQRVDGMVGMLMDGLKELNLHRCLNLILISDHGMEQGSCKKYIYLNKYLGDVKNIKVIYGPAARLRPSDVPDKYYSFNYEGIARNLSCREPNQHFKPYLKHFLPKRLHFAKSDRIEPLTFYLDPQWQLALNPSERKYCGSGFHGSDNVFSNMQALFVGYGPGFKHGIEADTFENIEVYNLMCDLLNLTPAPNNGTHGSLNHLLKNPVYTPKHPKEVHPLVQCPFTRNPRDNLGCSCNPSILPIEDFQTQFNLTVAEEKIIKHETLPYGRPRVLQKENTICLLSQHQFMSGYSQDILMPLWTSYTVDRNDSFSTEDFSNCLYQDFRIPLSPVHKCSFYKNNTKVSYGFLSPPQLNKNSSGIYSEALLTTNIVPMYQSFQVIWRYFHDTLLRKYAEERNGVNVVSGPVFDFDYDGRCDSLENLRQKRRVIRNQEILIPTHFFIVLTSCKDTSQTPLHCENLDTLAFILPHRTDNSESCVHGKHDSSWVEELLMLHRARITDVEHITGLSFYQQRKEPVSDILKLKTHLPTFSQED
Description: cGAMP export assay in ENPP1-transfected cells. Type of data set: cell-based.

Data set [9] in a line: Pharmacokinetics of STF-1623 after subcutaneous injection. The data set is classed as in vivo, mouse.
The next data set concerns Panc02 tumors. Description: Panc02 syngeneic subcutaneous pancreatic tumor model. The data set is classed as in vivo, mouse. The following applies: subcutaneous pump, 50 mg/kg/day.
Data set [10] concerns primary human PBMCs. The note with it: 200 nM cGAMP electroporated, 16 h; 50 μM STF-1084; 2 μM STF-1623.
In another data set the test system is CD14+ PBMCs. The data set can be described thus: Stimulation of CD14+ PBMCs with extracellular cGAMP. The data set is classed as cell-based, human. The following applies: soluble extracellular cGAMP, 16 h.

On to `COc1cc2ncnc(N3CCC(CCP(=O)(O)O)CC3)c2cc1OC` [STF-1084, dimethyl (2-(1-(6,7-dimethoxyquinazolin-4-yl)piperidin-4-yl)ethyl)phosphonic acid hydrogen bromide salt], for which the Ki was greater than 100000 nM in data set [1] and 5500 nM at ENPP2. Also, the permeability category entry (in data set [2]; with Caco-2 monolayer; in the data set with epithelial cells MDCK) was “impermeable” each time. For the same molecule, the “extracellular cGAMP” value in the data set on 4T1-luc cells (4T1-luc, 48 hours, serum-containing media, 50 μM STF-1084) was 3,000,000 molecules/cell. In addition, the tumor free survival in the data set on 4T1-luc tumors (IR (20 Gy) + 10 μg cGAMP + 100 μL of 1 mM STF-1084 intratumoral on day 2, 4, 7) is 1/10. Moreover, in [3], the “pharmacokinetics (in words)” value is recorded as “fast pharmacokinetics”. Also, the “toxicity to PBMCs” value with primary human PBMCs [4] (100 μM) is reported as “non-toxic”. For the same molecule, the half-life in [5] and in data set [6] was greater than 2.65 h each time. Moreover, the “effect on intracellular / extracellular cGAMP (cGAMP export)” value in data set [7] is “no effect on intracellular cGAMP”.

On purified mouse ENPP1, `COc1cccc2c(N3CCC(CCP(=O)(O)O)CC3)ncnc12` [STF-1623, (2-(1-(8-methoxyquinazolin-4-yl)piperidin-4-yl)ethyl)phosphonic acid] gave a Ki of 16 nM. This molecule also returned an IC50 in data set [8] of 68 nM. Also, the permeability category entry (in data set [2]; in the data set with Caco-2 monolayer; in the data set with epithelial cells MDCK) was “cell impermeable” throughout. The molecule further came in with a concentration at 24 h in data set [9] (mouse, plasma, sc, 300 mg/kg) greater than 100 nM. The “pharmacokinetic profile (in words)” value in data set [9] (systemic dosing) is on record as “improved pharmacokinetic profile compared to STF-1084”. For the same molecule, the “tumor growth, combination with IR” value with Panc02 tumors (day 0 to 8, IR (20 Gy) on day 1) is “synergized with IR to delay tumor growth”. The “tumor growth, single agent” value in the data set with Panc02 tumors (day 0 to 8, no IR) is reported as “delayed tumor growth as a single agent”. For the same molecule, the “cytokine production (IFNB1, CXCL10 mRNA) after cGAMP electroporation” value in the data set on primary human PBMCs [10] is recorded as “no effect on cytokine production”. For the same molecule, in the data set with primary human PBMCs [4], the “toxicity to PBMCs” value is recorded as “not toxic”. The half-life in data set [5] and in data set [6] was greater than 2.65 h throughout. Also, the “effect on intracellular / extracellular cGAMP (cGAMP export)” value in [7] is reported as “affected only extracellular cGAMP concentrations”.

Consider `Nc1nc2c(ncn2[C@@H]2O[C@@H]3COP(=O)(O)O[C@H]4[C@@H](O)[C@H](n5cnc6c(N)ncnc65)O[C@@H]4COP(=O)(O)O[C@@H]2[C@@H]3O)c(=O)[nH]1` [cGAMP, 2’3’-cyclic GMP-AMP], for which the tumor free survival in the data set with 4T1-luc tumors (Enpp1−/− 4T1-luc tumors, IR (20 Gy) + three intratumoral injections of 10 μg cGAMP) was 3/11. Besides, the survival result in the data set on 4T1-luc tumors (WT 4T1-luc tumors, IR (20 Gy) + three intratumoral injections of 10 μg cGAMP) was “no mice inoculated with WT tumors survived”. For the same molecule, the “cGAMP concentration to which CD14+ PBMCs respond by upregulating IFNB1” value in the data set with CD14+ PBMCs is “submicromolar”.

B1: mENPP1: purified soluble recombinant mouse ENPP1, cGAMP hydrolase (protein, UniProt P06802 80-906, looked up)
extracellular domain: KPSCAKEVKSCKGRCFERTFSNCRCDAACVSLGNCCLDFQETCVEPTHIWTCNKFRCGEKRLSRFVCSCADDCKTHNDCCINYSSVCQDKKSWVEETCESIDTPECPAEFESPPTLLFSLDGFRAEYLHTWGGLLPVISKLKNCGTYTKNMRPMYPTKTFPNHYSIVTGLYPESHGIIDNKMYDPKMNASFSLKSKEKFNPLWYKGQPIWVTANHQEVKSGTYFWPGSDVEIDGILPDIYKVYNGSVPFEERILAVLEWLQLPSHERPHFYTLYLEEPDSSGHSHGPVSSEVIKALQKVDRLVGMLMDGLKDLGLDKCLNLILISDHGMEQGSCKKYVYLNKYLGDVNNVKVVYGPAARLRPTDVPETYYSFNYEALAKNLSCREPNQHFRPYLKPFLPKRLHFAKSDRIEPLTFYLDPQWQLALNPSERKYCGSGFHGSDNLFSNMQALFIGYGPAFKHGAEVDSFENIEVYNLMCDLLGLIPAPNNGSHGSLNHLLKKPIYNPSHPKEEGFLSQCPIKSTSNDLGCTCDPWIVPIKDFEKQLNLTTEDVDDIYHMTVPYGRPRILLKQHHVCLLQQQQFLTGYSLDLLMPLWASYTFLRNDQFSRDDFSNCLYQDLRIPLSPVHKCSYYKSNSKLSYGFLTPPRLNRVSNHIYSEALLTSNIVPMYQSFQVIWHYLHDTLLQRYAHERNGINVVSGPVFDFDYDGRYDSLEILKQNSRVIRSQEILIPTHFFIVLTSCKQLSETPLECSALESSAYILPHRPDNIESCTHGKRESSWVEELLTLHRARVTDVELITGLSFYQDRQESVSELLRLKTHLPIFSQED
modifications: extracellular domain
B1: the “extracellular cGAMP signal” value in the data set on 4T1-luc cells (4T1-luc conditioned media incubated with 10 nM recombinant mENPP1 overnight) is reported as “abolished the cGAMP signal”.

The record behind these values is PMC7990037 (Nature cancer, 2020).
